From publication PMC8795149, “Characterization of a novel non-steroidal glucocorticoid receptor agonist optimized for topical treatment” (Scientific Reports, 2022)

Assays:
[1] = test system: LPS-induced TNF-alpha release in PBMCs; experiment: TNF-alpha inhibition assay, human PBMCs; assay type: cell-based; conditions: for EC50: geometric mean; for Potency compared to LEO 134310, TNF-alpha release: human PBMC assay
Description: PMBCs were isolated from human buffy coats or animal whole blood (EDTA-treated). Buffy coats from anonymized healthy adult blood donors were obtained from the Blood Bank of the National University Hospital Copenhagen in accordance with national legislation. Whole blood from mice (obtained from Charles River) was sampled at the animal facility at LEO Pharma and whole blood from pigs was sourced from ScanTox. Test compounds and PBMCs were incubated with 1 µg/ml LPS (Sigma) overnight at 37 °C in HEPES and Glutamax-containing RPMI medium supplemented with either 0.5% human serum albumin (human PBMCs) or 10% fetal bovine serum (mouse and pig PBMCs) and penicillin/streptomycin. TNF-alpha was measured using AlphaLISA (Perkin Elmer).
IC50 of test compounds was determined by 10-point titrations in duplicates. IC50 values and other parameters were calculated by sigmoidal curve fitting in Assay Explorer.

[2] = test system: TXNIP mRNA; experiment: Human skin explant, TXNIP gene expression; assay type: cell-based; conditions: human skin explants, topical, 24 h; for TXNIP Relative ED50: weighted geometric mean ± SD
Description: (§1) NativeSkin models (NS002) were purchased from Genoskin, France. Human skin samples from abdominal reduction surgery were obtained by Genoskin from donors upon written informed consent. Full ethical approval for the study protocol was obtained from the French ethical research committee (Comité de Protection des Personnes), and authorization was given by the French Ministry of Research. The study was conducted according to the Declaration of Helsinki. 8 mm punch biopsies were excised and embedded in a fibrin-based matrix in transwells and a silicone ring was firmly attached to the surface covering the outer edge of the skin biopsy to prevent lateral diffusion of topically applied formulations. Skin models were cultured in a defined hydrocortisone- and serum-free medium provided by Genoskin.
(§2) LEO 134310 and reference glucocorticoids were dissolved in propylene carbonate and tested at 4 concentrations in five- or tenfold titrations. Compounds were applied in duplicates or triplicates on the skin surface (0.5 cm^2) in a volume of 2 µL and incubated for 24 h. Vehicle and untreated samples were included for basal level of expression.
(§3) RNA was extracted and qPCR was performed using TaqMan gene expression assays (FKBP5-Hs01561006_m1, TSC22D3 (GILZ)-Hs00608272_m1, TXNIP-Hs01006900_g1, ACTB-Hs99999903_m1, PPIA-Hs99999904_m1, GAPDH-Hs99999905_m1). Gene expression of FKBP5,TSC22D3 (GILZ), and TXNIP was normalized to the geometric mean of the reference genes ACTB, PPIA and GAPDH.
(§4) Doses were expressed as compound (API) concentrations (µg/mL) in the applied formulations. Relative upregulation of FKBP5 was estimated as − fold to vehicle treated control. Effective doses (Emax and ED50) were determined from a sigmoid Emax model in Phoenix64 version 8.0, Pharsight, Certara. Mean values and standard deviation of Emax and ED50 were calculated by weighing individual experiments based on the intra- and inter-experiment variability.

[3] = test system: FKBP5 mRNA (GR target engagement); experiment: Human skin explant, FKBP5 gene expression; assay type: cell-based; conditions: human skin explants; for FKBP5 Emax / FKBP5 Relative ED50 (API concentration in dosing solution): topical, 24 h; for FKBP5 Relative ED50 (API concentration in dosing solution): weighted geometric mean ± SD
Description: as §1, §2, §3, §4

[4] = test system: GILZ mRNA; experiment: Human skin explant, GILZ gene expression; assay type: cell-based; conditions: human skin explants, topical, 24 h; for GILZ Relative ED50: weighted geometric mean ± SD
Description: as §1, §2, §3, §4

[5] = test system: minipig skin; experiment: Local tolerance study in minipigs (skin atrophy); assay type: in vivo; conditions: for Discoloration of application sites: 4 weeks topical; for Reduction in epidermal thickness: 4 weeks, vs untreated and vehicle controls
Description: 5 male Göttingen SPF minipigs (5–7 months old; body weight 12–15 kg) were obtained from Ellegaard Göttingen Minipigs A/S, Dalmose, Denmark.
Each animal was treated for 6 h daily over 28 days with 25 µL of the following topical formulations on an application area of 2.5 cm × 2.5 cm: Vehicle (transcutol:acetone (1:9) with 10% hydroxy-propyl-cellulose); Dermovate cream (CP 0.05%), CP 0.05% in vehicle; Betnovate cream (BMV 0.1%); BMV 0.1% in vehicle; LEO 134310 2% in vehicle. One test field on each animal remained untreated.
Formulations were spread uniformly over the indicated clipped area and covered with porous gauze dressing. At the end of each exposure period all application site as well as the untreated area were rinsed with a mild soap (Abena Mild cream soap, Abena A/S, Denmark) in water and dried with a paper towel.
Skin biopsies were taken from anaesthetized animals 24 h after the last treatment. Samples for histopathological examination were fixed in phosphate buffered neutral 4% formaldehyde and stained with H&E. Mean arithmetic epidermal thickness was determined by measuring epidermal area, excluding stratum corneum, and dividing this area with the length of the epidermis. All measurements were performed on H&E stained and scanned slides using the Visiopharm software.

[6] = molecular target: T1, GR (Homo sapiens, UniProt P04150); experiment: Reversal of GR agonist-mediated suppression of cytokine release from LPS-stimulated PBMC by RU486; assay type: cell-based; set-up: endogenous in cells; conditions: 100 nM agonist
T1 sequence (P04150 1-777): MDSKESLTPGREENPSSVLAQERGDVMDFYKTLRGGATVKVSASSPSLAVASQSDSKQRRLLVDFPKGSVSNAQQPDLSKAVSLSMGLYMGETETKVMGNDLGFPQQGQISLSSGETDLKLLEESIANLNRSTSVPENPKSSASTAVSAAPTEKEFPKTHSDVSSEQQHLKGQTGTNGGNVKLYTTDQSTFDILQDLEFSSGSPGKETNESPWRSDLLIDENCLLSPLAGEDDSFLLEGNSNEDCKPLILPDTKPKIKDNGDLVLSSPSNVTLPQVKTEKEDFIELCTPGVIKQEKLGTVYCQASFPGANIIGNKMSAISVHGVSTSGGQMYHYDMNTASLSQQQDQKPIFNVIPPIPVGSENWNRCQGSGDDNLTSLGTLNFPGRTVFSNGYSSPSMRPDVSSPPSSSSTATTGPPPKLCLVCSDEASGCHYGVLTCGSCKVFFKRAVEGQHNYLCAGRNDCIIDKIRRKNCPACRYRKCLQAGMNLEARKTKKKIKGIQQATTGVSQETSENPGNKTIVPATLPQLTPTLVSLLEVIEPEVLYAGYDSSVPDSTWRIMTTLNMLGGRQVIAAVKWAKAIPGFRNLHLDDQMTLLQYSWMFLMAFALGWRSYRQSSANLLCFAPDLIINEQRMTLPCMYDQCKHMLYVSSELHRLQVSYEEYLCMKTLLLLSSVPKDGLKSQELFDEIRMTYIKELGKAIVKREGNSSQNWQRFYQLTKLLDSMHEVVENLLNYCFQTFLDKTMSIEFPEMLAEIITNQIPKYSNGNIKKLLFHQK
Description: PMBCs were isolated from human buffy coats obtained in accordance with national legislation and following in-house protocol at Charles River Laboratories (Leiden, Netherlands). Test compounds and PBMCs were incubated with 10 ng/ml LPS (Sigma) overnight at 37°C in HEPES and Glutamax-containing RPMI medium supplemented with 0.5% human serum albumin (human PBMCs) and penicillin/streptomycin. TNF-alpha, IL-1-beta, and IL-6 were measured by MSD multiplex assay (Meso Scale Discovery).Compound concentration in dermis (Figure S4)

[7] = CP 0.05%, BMV 0.1%, 6 h daily semi-occlusion

Question: Which Emax ([1]; PBMC, Human PBMCs) does the source give for CCC(=O)O[C@]1(C(=O)CCl)[C@@H](C)C[C@H]2[C@@H]3CCC4=CC(=O)C=C[C@]4(C)[C@@]3(F)[C@@H](O)C[C@@]21C [CP, Clobetasol Propionate] here?
Answer: Its Emax is 79%.

Question: And the EC50 ([1]; PBMC, Human PBMCs)?
Answer: The EC50 was 0.52 nM.

Question: And the “Potency compared to LEO 134310, TNF-alpha release” value [1]?
Answer: The value was “fourfold more potent”.

Question: And the “TXNIP Emax” value [2]?
Answer: The value was 19 ± 8.5^NS fold to control.

Question: What about the “TXNIP Relative ED50” value [2] of the same compound?
Answer: Its value is 1.3 ± 0.33 µg/mL.

Question: What about the “FKBP5 Emax” value [3] of the same compound?
Answer: Its value is 6.9 ± 3.1^NS fold to control.

Question: And the “FKBP5 Relative ED50 (API concentration in dosing solution)” value (“FKBP5 Relative ED50” below) [3]?
Answer: Its value is 0.52 ± 0.06^NS µg/mL.

Question: And the “GILZ Emax” value [4]?
Answer: The value was 7.7 ± 2.5^NS fold to control.

Question: What about the “GILZ Relative ED50” value [4] of the same compound?
Answer: The value was 1.1 ± 0.25^NS µg/mL.

Question: What about the “Discoloration of application sites” value [5] of the same compound?
Answer: Its value is “notable discoloration was observed in most application sites”.

Question: And the “Reduction in epidermal thickness” value [5, 7]?
Answer: The value was 30–40%.

Question: And the “Reversal by GR antagonist RU486 of inhibition of LPS-induced cytokine release” value [6]?
Answer: The value was “could be reversed in a concentration-dependent manner”.

Question: C[C@H](NC(=O)[C@H]1CCCO1)[C@H](Oc1ccc(C(=O)O[C@H]2CCCN(C(=O)[C@H]3COC(=O)C3)C2)cc1)c1ccc(C2CC2)cc1 [LEO 134310] was tested. Which “Inhibition of LPS-induced TNF-alpha release Emax” value ([1]; Human PBMCs) did it give?
Answer: Its value is 77%.

Question: What about the EC50 ([1]; Human PBMCs) of the same compound?
Answer: Its EC50 is 2.3 nM.

Question: What about the “TXNIP Emax” value [2] of the same compound?
Answer: Its value is 19 ± 7.3^NS fold to control.

Question: And the “TXNIP Relative ED50” value [2]?
Answer: Its value is 110 ± 300^NS µg/mL.

Question: And the “Higher dose needed to achieve similar level of FKBP5 induction as BMV” value [3]?
Answer: Its value is “approximately 30 fold”.

Question: And the “FKBP5 Emax” value [3]?
Answer: The value was 7.2 ± 2.7^NS fold to control.

Question: What about the “FKBP5 Relative ED50” value [3] of the same compound?
Answer: Its value is 270 ± 130 µg/mL.

Question: What about the “GILZ Emax” value [4] of the same compound?
Answer: Its value is 6.7 ± 2.7^NS fold to control.

Question: What about the “GILZ Relative ED50” value [4] of the same compound?
Answer: Its value is 270 ± 110 µg/mL.

Question: What about the “Reduction in epidermal thickness” value ([5]; LEO 134310 2%, 6 h daily) of the same compound?
Answer: Its value is “did not result in any significant reduction in epidermal thickness”.

Question: What about the “Reversal by GR antagonist RU486 of inhibition of LPS-induced cytokine release” value [6] of the same compound?
Answer: The value was “could be reversed in a concentration-dependent manner”.

Question: How did the Emax ([1]; PBMC, Human PBMCs) turn out when CCCCC(=O)O[C@]1(C(=O)CO)[C@@H](C)C[C@H]2[C@@H]3CCC4=CC(=O)C=C[C@]4(C)[C@@]3(F)[C@@H](O)C[C@@]21C [BMV, Betamethasone Valerate] was run?
Answer: Its Emax is 79%.

Question: What about the EC50 ([1]; PBMC, Human PBMCs) of the same compound?
Answer: The EC50 was 3.2 nM.

Question: And the “Potency compared to LEO 134310, TNF-alpha release” value [1]?
Answer: Its value is “equipotent”.

Question: What about the “TXNIP Emax” value [2] of the same compound?
Answer: The value was 17 ± 17 fold to control.

Question: What about the “TXNIP Relative ED50” value [2] of the same compound?
Answer: The value was 52 ± 15 µg/mL.

Question: What about the “FKBP5 Emax” value [3] of the same compound?
Answer: The value was 5.6 ± 4.9 fold to control.

Question: And the “FKBP5 Relative ED50” value [3]?
Answer: Its value is 9.5 ± 6.9 µg/mL.

Question: And the “GILZ Emax” value [4]?
Answer: The value was 6.1 ± 3.7 fold to control.

Question: And the “GILZ Relative ED50” value [4]?
Answer: Its value is 5.1 ± 27 µg/mL.

Question: And the “Discoloration of application sites” value [5]?
Answer: Its value is “notable discoloration was observed in most application sites”.

Question: What about the “Reduction in epidermal thickness” value [5, 7] of the same compound?
Answer: The value was 30–40%.

Question: And the “Reversal by GR antagonist RU486 of inhibition of LPS-induced cytokine release” value [6]?
Answer: The value was “could be reversed in a concentration-dependent manner”.
